Experimental data published in patent publication US8158628B2, “Sulfonylated 1,2,3,4-tetrahydropyrrolo[1,2-a]pyrazine compounds and their use as pharmaceuticals” (Gruenenthal GmbH, priority 2009, dated 2012).

Legend:
[1] = biological target: T1, B1R of the rat (Rattus norvegicus, UniProt P97583); assay: FLIPR Ca2+ functional assay, B1R antagonism, rat B1R in CHO K1 cells; format: cell-based; details: test substance 10 μM; rB1R CHO K1 cells; agonist Des-Arg9 bradykinin at EC80; % of maximum achievable inhibition
T1 construct: expressed in transfected cells; host or cells: CHO K1 cells (Chinese hamster ovary), stably transfected
T1 sequence (P97583 1-337): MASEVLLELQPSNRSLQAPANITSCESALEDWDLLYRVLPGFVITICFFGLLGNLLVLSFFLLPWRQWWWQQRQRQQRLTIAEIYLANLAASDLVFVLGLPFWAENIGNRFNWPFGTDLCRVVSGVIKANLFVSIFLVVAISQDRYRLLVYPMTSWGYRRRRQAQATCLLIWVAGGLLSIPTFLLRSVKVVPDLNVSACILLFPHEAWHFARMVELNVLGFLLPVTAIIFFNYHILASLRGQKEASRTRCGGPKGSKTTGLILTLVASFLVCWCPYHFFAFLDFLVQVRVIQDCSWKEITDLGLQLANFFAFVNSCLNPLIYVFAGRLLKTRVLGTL
In short: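 Stably transfected CHO K1 cells loaded with Fluo-4; Ca2+ fluorescence read on FLIPR (ex 488/em 540 nm). Compound preincubated 10-20 min, then agonist at EC80: Lys-Des-Arg9 bradykinin (human) or Des-Arg9 bradykinin (rat). % inhibition vs maximal inhibition; IC50 from concentration series, n=2-3, N>=2.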

[2] = biological target: T2, human B1R (Homo sapiens, UniProt P46663); assay: FLIPR Ca2+ functional assay, B1R antagonism, human B1R in CHO K1 cells; format: cell-based; details: test substance 10 μM; hB1R CHO K1 cells; agonist Lys-Des-Arg9 bradykinin at EC80; % of maximum achievable inhibition
T2 construct: expressed in transfected cells; host or cells: CHO K1 cells (Chinese hamster ovary), stably transfected
T2 sequence (P46663 1-353): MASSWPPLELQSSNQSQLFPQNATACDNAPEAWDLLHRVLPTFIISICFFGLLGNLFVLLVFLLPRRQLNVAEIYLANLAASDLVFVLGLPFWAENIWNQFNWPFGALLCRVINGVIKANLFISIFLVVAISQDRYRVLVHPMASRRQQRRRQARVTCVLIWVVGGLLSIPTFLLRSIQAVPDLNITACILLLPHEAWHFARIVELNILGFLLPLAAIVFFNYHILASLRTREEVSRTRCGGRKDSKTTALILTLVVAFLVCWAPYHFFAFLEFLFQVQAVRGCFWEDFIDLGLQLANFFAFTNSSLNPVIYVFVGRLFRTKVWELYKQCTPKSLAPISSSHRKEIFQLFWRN
Method: The agonistic or antagonistic action of substances on the bradykinin 1 receptor (B1R) of the human and rat species can be quantified with ectopically expressing cell lines (CHO K1 cells) and with the aid of a Ca^2+-sensitive dye (Fluo-4) using a fluorescent imaging plate reader (FLIPR). The value in % activation is based on the Ca^2+ signal after addition of Lys-Des-Arg^9 bradykinin (0.5 nM) or Des-Arg^9 bradykinin (100 nM). Antagonists lead to a suppression of the Ca^2+ influx following administration of the agonist. The % inhibition in comparison with the maximum achievable inhibition is indicated.
1. Functional Investigation on the Bradykinin 1 Receptor (B1R) The agonistic or antagonistic action of substances can be determined on the bradykinin 1 receptor (B1R) of the human and rat species with the following assay. According to this assay, the Ca^2+ inflow through the channel is quantified with the aid of a Ca^2+-sensitive dye (Fluo-4 type, Molecular Probes Europe BV, Leiden, Netherlands) in a fluorescent imaging plate reader (FLIPR, Molecular Devices, Sunnyvale, USA). 2. Method: Chinese hamster ovary cells (CHO K1 cells) which are stably transfected with the human B1R gene (hB1R cells) or the B1R gene of the rat (rB1R cells) are used. For functional investigations these cells are plated-out onto black 96-well plates with a clear base (BD Biosciences, Heidelberg, Germany or Greiner, Frickenhausen, Germany) in a density of 20,000-35,000 cells/well. Overnight the cells are incubated at 37° C. and 5% CO2 in culture medium (hB1R cells: Ham's Nutrient Mixture F12, Gibco Invitrogen GmbH, Karlsruhe, Germany or DMEM, Sigma-Aldrich, Taufkirchen, Germany; rB1R cells: D-MEM/F12, Gibco Invitrogen, Karlsruhe, Germany) with 10 vol. % FBS (foetal bovine serum, Gibco Invitrogen GmbH, Karlsruhe, Germany or PAN Biotech GmbH, Aidenbach, Germany).
On the following day the cells are loaded with 2.13 μM Fluo-4 (Molecular Probes Europe BV, Leiden, Netherlands) in HBSS buffer (Hank's buffered saline solution, Gibco Invitrogen GmbH, Karlsruhe, Germany) with 2.5 mM probenecid (Sigma-Aldrich, Taufkirchen, Germany) and 10 mM HEPES (Sigma-Aldrich, Taufkirchen, Germany) for 60 min at 37° C. The plates are subsequently washed twice with HBSS buffer, and HBSS buffer which additionally contains 0.1% BSA (bovine serum albumin; Sigma-Aldrich, Taufkirchen, Germany), 5.6 mM glucose and 0.05% gelatine (Merck KGaA, Darmstadt, Germany) is added. After a further incubation of 20 minutes at RT, the plates are inserted into the FLIPR for Ca^2+ measurement. Alternatively they are washed with buffer A (15 mM HEPES, 80 mM NaCl, 5 mM KCl, 1.2 mM CaCl2, 0.7 mM MgSO4, 2 g/l glucose, 2.5 mM probenecid) and loaded with buffer A with added 2.5 μM Fluo-4 and 0.025% Pluronic F127 (Sigma-Aldrich, Taufkirchen, Germany). The cells are then washed twice with buffer A and incubated for 30 minutes with buffer A, which additionally contains 0.05% BSA and 0.05% gelatine, at RT and then used for Ca^2+ measurement in the FLIPR. The Ca^2+-dependent fluorescence is measured here before and after addition of substances (λex=488 nm, λem=540 nm). The quantification is performed by measuring the highest fluorescence intensity (FC, fluorescence counts) over time.
The FLIPR protocol comprises two additions of substance. Test substances (10 μM) are first pipetted onto the cells and the Ca^2+ inflow is compared with the control (hB1R: Lys-Des-Arg^9 bradykinin >=50 nM; rB1R: Des-Arg^9 bradykinin 10 μM). The value in % activation based on the Ca^2+ signal after addition of Lys-Des-Arg^9 bradykinin (>=50 nM) or Des-Arg^9 bradykinin (10 μM) is obtained therefrom. After incubation for 10-20 minutes, Lys-Des-Arg^9 bradykinin (hB1R) or Des-Arg^9 bradykinin (rB1R) is applied in the EC80 concentration and the inflow of Ca^2+ is likewise determined.
Antagonists lead to a suppression of the Ca^2+ inflow. The % inhibition in comparison with the maximum achievable inhibition is calculated. […]

With COc1ccc2cc(S(=O)(=O)N3CCn4cccc4C3CC(=O)NC3CCCc4cc(CN5CCCCC5)ccc43)ccc2c1 (centres unmarked) [Example 128, 2-[2-[(6-Methoxy-naphthalen-2-yl)sulfonyl]-1,2,3,4-tetrahydro-pyrrolo[1,2-a]pyrazin-1-yl]-N-[6-(piperidin-1-yl-methyl)-1,2,3,4-tetrahydro-naphthalen-1-yl]-acetamide] as the compound, how does the inhibition at 10 µM [1] read?
Its inhibition at 10 µM is 103%.

What about the inhibition at 10 µM [2] of the same compound?
The inhibition at 10 µM was 99.8%.

What does the source list for COc1cc(C)c(S(=O)(=O)N2CCn3cccc3C2COCC(=O)N2CCC(Oc3ccncc3)CC2)c(C)c1 (centres unmarked) [Example 13, 2-((2-(4-Methoxy-2,6-dimethylphenylsulfonyl)-1,2,3,4-tetrahydropyrrolo[1,2-a]pyrazin-1-yl)methoxy)-1-(4-(pyridin-4-yloxy)piperidin-1-yl)ethanone]?
inhibition at 10 µM [1]: 100%; inhibition at 10 µM [2]: 100%

How did the inhibition at 10 µM [1] turn out when COc1cc(C)c(S(=O)(=O)N2CCn3cccc3C2COCC(=O)N2CCN(C3CCN(C)CC3)CC2)c(C)c1 (centres unmarked) [Example 2, 2-((2-(4-Methoxy-2,6-dimethylphenylsulfonyl)-1,2,3,4-tetrahydropyrrolo[1,2-a]pyrazin-1-yl)methoxy)-1-(4-(1-methylpiperidin-4-yl)piperazin-1-yl)ethanone] was run?
Its inhibition at 10 µM is 98.9%.

What about the inhibition at 10 µM [2] of the same compound?
Its inhibition at 10 µM is 99.9%.

COc1ccc2cc(S(=O)(=O)N3CCn4cccc4C3CC(=O)NC3CCCc4cc(CN5CCCC5)ccc43)ccc2c1 (centres unmarked) [Example 98, 2-[2-[(6-Methoxy-naphthalen-2-yl)sulfonyl]-1,2,3,4-tetrahydro-pyrrolo[1,2-a]pyrazin-1-yl]-N-[6-(pyrrolidin-1-yl-methyl)-1,2,3,4-tetrahydro-naphthalen-1-yl]-acetamide] was tested. Which inhibition at 10 µM [1] did it give?
The inhibition at 10 µM was 99.7%.

What about the inhibition at 10 µM [2] of the same compound?
Its inhibition at 10 µM is 99.9%.

Which inhibition at 10 µM [1] does the source give for O=C(CC1c2cccn2CCN1S(=O)(=O)c1cccc(C(F)(F)F)c1)NC1CCCc2cc(CNCc3ccccc3)ccc21 (centres unmarked) [Example 112, N-[6-[(Benzylamino)-methyl]-1,2,3,4-tetrahydro-naphthalen-1-yl]-2-[2-[[3-(trifluoromethyl)phenyl]sulfonyl]-1,2,3,4-tetrahydro-pyrrolo[1,2-a]pyrazin-1-yl]-acetamide] here?
Its inhibition at 10 µM is 102%.

What about the inhibition at 10 µM [2] of the same compound?
The inhibition at 10 µM was 99.8%.

Which inhibition at 10 µM [1] does the source give for Cc1ccc(S(=O)(=O)N2CCn3cccc3C2CC(=O)NC2CCCc3cc(CN4CCOCC4)ccc32)cc1Cl (centres unmarked) [Example 57, 2-[2-[(3-Chloro-4-methyl-phenyl)sulfonyl]-1,2,3,4-tetrahydro-pyrrolo[1,2-a]pyrazin-1-yl]-N-[6-(morpholin-4-yl-methyl)-1,2,3,4-tetrahydro-naphthalen-1-yl]-acetamide] here?
The inhibition at 10 µM was 101%.

What about the inhibition at 10 µM [2] of the same compound?
Its inhibition at 10 µM is 98.5%.

What does the source list for COc1cc(C)c(S(=O)(=O)N2CCn3cccc3C2CC(=O)N2CCN(C3CCN(C)CC3)CC2)c(C)c1 (centres unmarked) [Example 1, 2-(2-(4-Methoxy-2,6-dimethylphenylsulfonyl)-1,2,3,4-tetrahydro-pyrrolo[1,2-a]pyrazin-1-yl)-1-(4-(1-methylpiperidin-4-yl)piperazin-1-yl)ethanone]?
inhibition at 10 µM [1]: 100%; inhibition at 10 µM [2]: 94.8%

Which results are given for COc1ccc2cc(S(=O)(=O)N3CCn4cccc4C3CC(=O)N(C)C3CCc4cc(CN5CCCCC5)ccc4C3)ccc2c1 (centres unmarked) [Example 43, 2-[2-[(6-Methoxy-naphthalen-2-yl)sulfonyl]-1,2,3,4-tetrahydro-pyrrolo[1,2-a]pyrazin-1-yl]-N-methyl-N-[6-(piperidin-1-yl-methyl)-1,2,3,4-tetrahydro-naphthalen-2-yl]-acetamide]?
inhibition at 10 µM [1]: 103%; inhibition at 10 µM [2]: 99.5%

For COc1cc(C)c(S(=O)(=O)N2CCn3cccc3C2COCC(=O)N2CCC3(CCNC3)CC2)c(C)c1 (centres unmarked) [Example 22, 2-((2-(4-Methoxy-2,6-dimethylphenylsulfonyl)-1,2,3,4-tetrahydro-pyrrolo[1,2-a]pyrazin-1-yl)methoxy)-1-(2,8-diazaspiro[4.5]decan-8-yl)ethanone], which inhibition at 10 µM [1] is on record?
Its inhibition at 10 µM is 113%.

What about the inhibition at 10 µM [2] of the same compound?
The inhibition at 10 µM was 99.6%.

For Cc1ccc(S(=O)(=O)N2CCn3cccc3C2CC(=O)NC2CCCc3cc(CN4CCCC4)ccc32)cc1Cl (centres unmarked) [Example 91, 2-[2-[(3-Chloro-4-methyl-phenyl)sulfonyl]-1,2,3,4-tetrahydro-pyrrolo[1,2-a]pyrazin-1-yl]-N-[6-(pyrrolidin-1-yl-methyl)-1,2,3,4-tetrahydro-naphthalen-1-yl]-acetamide], which inhibition at 10 µM [1] is on record?
The inhibition at 10 µM was 99%.

What about the inhibition at 10 µM [2] of the same compound?
Its inhibition at 10 µM is 99.9%.

With COc1ccc2cc(S(=O)(=O)N3CCn4cccc4C3CC(=O)NC3CCc4cc(CN(C)C(C)(C)C)ccc4C3)ccc2c1 (centres unmarked) [Example 97, N-[6-[(tert-Butyl-methyl-amino)-methyl]-1,2,3,4-tetrahydro-naphthalen-2-yl]-2-[2-[(6-methoxy-naphthalen-2-yl)sulfonyl]-1,2,3,4-tetrahydro-pyrrolo[1,2-a]pyrazin-1-yl]-acetamide] as the compound, how does the inhibition at 10 µM [1] read?
The inhibition at 10 µM was 102%.

What about the inhibition at 10 µM [2] of the same compound?
The inhibition at 10 µM was 99.8%.

Which results are given for COc1ccc2cc(S(=O)(=O)N3CCn4cccc4C3CC(=O)NC3CCc4cc(CNCc5ccccc5)ccc4C3)ccc2c1 (centres unmarked) [Example 101, N-[6-[(Benzylamino)-methyl]-1,2,3,4-tetrahydro-naphthalen-2-yl]-2-[2-[(6-methoxy-naphthalen-2-yl)sulfonyl]-1,2,3,4-tetrahydro-pyrrolo[1,2-a]pyrazin-1-yl]-acetamide]?
inhibition at 10 µM [1]: 103%; inhibition at 10 µM [2]: 99.9%

With CCC(C)NCc1ccc2c(c1)CCC(NC(=O)CC1c3cccn3CCN1S(=O)(=O)c1ccc3cc(OC)ccc3c1)C2 (centres unmarked) [Example 121, 2-[2-[(6-Methoxy-naphthalen-2-yl)sulfonyl]-1,2,3,4-tetrahydro-pyrrolo[1,2-a]pyrazin-1-yl]-N-[6-[(1-methyl-propylamino)-methyl]-1,2,3,4-tetrahydro-naphthalen-2-yl]-acetamide] as the compound, how does the inhibition at 10 µM [1] read?
The inhibition at 10 µM was 99.5%.

And the inhibition at 10 µM [2]?
Its inhibition at 10 µM is 99.9%.
